In US7501281B2, “Compositions, methods and kits related to thrombin, Notch signaling and stamatogenesis and growth of stem cells” (Maine Medical Center Research Institute, priority 2003, dated 2009):

How the values were obtained:
[1] = tested on: FGF1R136K NIH 3T3 cell transfectants; test: Thrombin stimulation and immunoblot analysis of FGF1 release; type: cell-based, murine
Protocol: FGF1R136K NIH 3T3 cell transfectants or adenovirally-transduced NIH 3T3 cells were washed with DMEM containing 5 units/ml of heparin (Sigma) and stimulated with either 10 μg/ml α-thrombin (a gift from Dr. J. Fenton) or 5 μM TRAP (Sigma) at 37° C. for different periods of time. Control cells were incubated in the absence of thrombin for the same time period. Conditioned media were collected at each time period, filtered, and concentrated as previously described (Jackson et al., 1992, Proc. Natl. Acad. Sci. U.S.A. 89:10691-10695). The concentrates were resolved by SDS-PAGE and subjected to immunoblot analysis using a rabbit antibody against either FGF1 (Jackson et al., 1992), Syt1 (LaVallee et al.,1998, J. Biol. Chem. 273:22217-22223) or Myc (Oncogene). The heat shock-induced release of FGF1 was performed at 42° C. for 110 minutes as previously described (Jackson et al., 1992). Cell viability was assessed by measuring lactate dehydrogenase activity in the conditioned medium after filtration as disclosed previously elsewhere herein (published as Mandinova et al., 2003, J. Cell Sci. 116:2687-2696), and total cell lysates were obtained and processed for immunoblot analysis as described (Landriscina et al., 2001, J. Biol. Chem. 276:22544-22552).
Stable FGF1R136K NIH 3T3 cell transfectants were pre-incubated with either 100 ng/ml pertussis toxin (PTX) or 10 ng/ml cholera toxin (CT) for 60 minutes at 37° C. in DMEM containing 10% BCS. After pre-incubation, the cells were washed, stimulated with 10 μg/ml of thrombin for different periods of time in the presence of either 100 ng/ml PTX or 10 ng/ml CT, conditioned medium collected, and subjected to immunoblot analysis as described above.
Since FGF1 is known to be susceptible to thrombin cleavage at residue 136 (Erzurum et al., 2003, J. Vasc. Surg. 37:1075-1081), a thrombin-resistant FGF1 mutant (FGF1R136K; described in International Patent Publication No. WO03/052378, which is incorporated by reference in its entirety herein) was used and stable FGF1R136K NIH 3T3 cell transfectants were produced.

[2] = target: T1, human Jagged1 (Homo sapiens, UniProt P78504, A1171G); test: Thrombin cleavage of in vitro translated Jagged1 and Edman microsequencing; type: biochemical
T1 construct: full-length Jagged1 was in vitro transcribed and translated; made in house; host or cells: cell-free: T7-coupled reticulocyte lysate in vitro transcription/translation system (Promega)
Protocol: A plasmid containing human Jagged1 (Zimrin et al., 1996, J. Biol. Chem. 271:32499-32502) was in vitro transcribed and in vitro translated in the presence of a (^35S)-Met/Cys protein-labeling mixture (Amersham) using the T7-coupled reticulocyte lysate system according to the manufacturer's instructions (Promega) in a total volume of 50 μl. After 60 minutes incubation at 30° C., 0.05% DTT was added, half of the reaction mixture incubated with 10 μg α-thrombin for 15 minutes at 37° C., and the reaction stopped by boiling in the presence of SDS-PAGE sample buffer. The samples were resolved by 12% SDS-PAGE, transferred to a nitrocellulose membrane, and analyzed by autoradiography. […] The products of each cycle were collected prior to resolution by HPLC, added to liquid scintillation fluid (Beckman) and the (^35S) samples quantitated by liquid scintillation spectroscopy (Beckman).
In an attempt to further define this pathway and the role that sJ1 might play in the regulation of cell proliferation, it was assessed if the Jagged1 translation product was susceptible to proteolytic cleavage by thrombin. […] The Jagged1 transcript was translated in vitro in the presence of (^35S)-Cys, resolved by SDS-PAGE, the 95 kDa fragment excised, subjected to automated Edman chemistry and the products of each cycle monitored by liquid scintillation spectroscopy. […]

[3] = tested on: NSC populations; test: Clonal expansion of NSC on NIH 3T3 transfectant feeder layer; type: cell-based
[4] = tested on: Swiss 3T3 cells expressing a dominant-negative FGFR1 mutant; test: DNA synthesis assay, (3H)-thymidine autoradiography; type: cell-based, murine; conditions: 10 μg/ml α-thrombin
Protocol: A combination of (^3H)-thymidine autoradiography and immunohistochemistry was used to evaluate the levels of DNA synthesis in Swiss 3T3 cells expressing a dominant-negative FGFR1 mutant. Swiss 3T3 cells were plated at 50% confluency on glass coverslips precoated with fibronectin (10 μg/cm^2) for 24 hours. The cells were transfected with the pCS2 vector expressing a dominant-negative X. laevis FGFR1 deletion mutant lacking the FGFR1 intracellular domain (a gift from Dr. R. Friesel) using the Fugene 6 reagent (Roche). After 24 hours, the medium was changed to DMEM containing 0.25% BCS and following a 48 hour incubation in low BCS, the cells were stimulated with either 10 μg/ml of α-thrombin, 10% BCS or 10 ng/ml of recombinant FGF1 plus 10 units/ml of heparin. After stimulation for 24 hours, (^3H)-thymidine (NEN; 1 μCi/ml) was added to the medium and cells were incubated for 12 hours and fixed with 4% neutral formaldehyde. […] The percentage of (^3H)-labeled nuclei among the dnFGFR1-positive and dnFGFR1-negative cells was quantitated using an inverted Olympus microscope.
Thus, a dominant-negative (dn) FGFR1 construct was expressed in Swiss 3T3 cells and their proliferative index measured in the presence and absence of exogenous thrombin.

[5] = tested on: PAR1 null cells adenovirally-transduced with the FGF1R136K mutant; test: Immunoblot analysis of FGF1 release in PAR1 null cells; type: cell-based, mouse; conditions: 10 μg/ml α-thrombin

T1 sequence (P78504 34-1218 A1171G): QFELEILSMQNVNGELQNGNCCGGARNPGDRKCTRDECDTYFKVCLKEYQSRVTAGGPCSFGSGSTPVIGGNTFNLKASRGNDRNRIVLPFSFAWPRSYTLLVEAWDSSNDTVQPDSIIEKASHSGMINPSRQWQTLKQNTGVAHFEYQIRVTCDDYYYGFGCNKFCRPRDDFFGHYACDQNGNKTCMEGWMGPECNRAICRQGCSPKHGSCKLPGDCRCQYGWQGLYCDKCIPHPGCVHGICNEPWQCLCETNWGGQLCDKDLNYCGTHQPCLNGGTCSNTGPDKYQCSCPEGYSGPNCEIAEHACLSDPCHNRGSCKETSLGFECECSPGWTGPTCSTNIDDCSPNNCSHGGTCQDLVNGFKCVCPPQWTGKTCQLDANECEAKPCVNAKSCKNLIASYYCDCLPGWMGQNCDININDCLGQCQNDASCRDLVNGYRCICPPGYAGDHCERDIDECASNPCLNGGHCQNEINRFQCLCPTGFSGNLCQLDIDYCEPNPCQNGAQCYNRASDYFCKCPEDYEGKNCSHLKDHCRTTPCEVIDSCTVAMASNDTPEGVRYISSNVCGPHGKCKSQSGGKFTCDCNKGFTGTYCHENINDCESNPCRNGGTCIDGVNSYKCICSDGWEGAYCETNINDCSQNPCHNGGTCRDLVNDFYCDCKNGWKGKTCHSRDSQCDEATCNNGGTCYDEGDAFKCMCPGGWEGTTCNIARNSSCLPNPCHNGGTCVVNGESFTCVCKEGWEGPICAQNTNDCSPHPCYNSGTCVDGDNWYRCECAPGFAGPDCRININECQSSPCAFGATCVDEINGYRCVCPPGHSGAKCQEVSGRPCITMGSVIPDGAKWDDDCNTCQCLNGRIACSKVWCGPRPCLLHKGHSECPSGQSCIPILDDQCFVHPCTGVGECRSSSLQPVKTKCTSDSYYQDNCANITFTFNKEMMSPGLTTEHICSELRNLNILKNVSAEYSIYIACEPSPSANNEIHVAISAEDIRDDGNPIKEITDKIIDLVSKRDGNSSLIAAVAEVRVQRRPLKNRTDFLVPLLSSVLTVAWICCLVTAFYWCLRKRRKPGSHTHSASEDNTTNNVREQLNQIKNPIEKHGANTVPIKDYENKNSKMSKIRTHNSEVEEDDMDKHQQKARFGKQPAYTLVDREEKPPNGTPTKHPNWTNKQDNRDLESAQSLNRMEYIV

In the case of Thrombin, the “export of FGF2” value [1] is reported as “unable to induce”, the “concentration giving maximal response of FGF1R136K release” value ([1]; 37° C.) is reported as 10 µg/mL and the “export of S100A13” value ([1]; 37° C., cells co-expressing S100A13 and FGF1R136K) is reported as “presence of S100A13 in the extracellular compartment”. For the same substance, the “release of the FGF1R136K mutant into the extracellular compartment” value ([1]; 37° C., 10 μg/ml α-thrombin or 5 μM TRAP) was “rapid and sustained appearance”, the “time to maximum levels of FGF-1 release after contact” value ([1]; FGF-1-NIH 3T3 transfectants) was “one” and the “release of the FGF1R136K mutant from cells with elevated Notch1 signaling” value ([1]; cells adenovirally transduced with caN1) was “unable to initiate the release”. The “export of p40 Syt1” value ([1]; p40 Syt1 adenovirally transduced) was “presence of p40 Syt1 in the extracellular compartment”, the Jagged1 cleavage site ([2]; Edman microsequencing of the 95 kDa fragment) was “between residues R348 and G349” and the “cleavage products of the 134 kDa Jagged1 translation product” value ([2]; α-thrombin 15 minutes at 37° C.) was “cleavage of the full-length Jagged1 protein into 39 kDa and 95 kDa fragments”. The “effect on size of NSC colonies” value ([3]; full-length Delta1 NIH 3T3 cell transfectant feeder layer) was “failed to induce”, the “effect on size of NSC colonies” value ([3]; full-length Jagged1 NIH 3T3 cell transfectant feeder layer, 5 μg/ml thrombin) was “exaggeration of the size of the NSC colonies” and the “DNA synthesis frequency with dnFGFR1 expression” value [4] was “level consistent with a quiescent cellular phenotype”. The “export of the FGF1R136K mutant” value [5] was “unable to induce the export”.
